Earlier results as cited in patent US8968710B1, “Topical anesthetic” (priority 2005, dated 2015).

- solubility in alcohol, ether, benzene and chloroform (alcohol, ether, benzene, chloroform): soluble
- solubility in water (water): very slightly soluble
Structure (SMILES): CCCCNc1ccc(C(=O)OCCN(C)C)cc1 [Tetracaine]
